Reference: DBAASP
Values after ≈ are worked out from the molar mass of the structure shown.

How the values were obtained:
Experiment in all cases: ≥ marks a high value that may be exact or a test limit, other limits are often not marked, values filed in µg/mL are converted to µM
[1] = system: Acinetobacter baumannii CCARM 12005
[2] = system: Acinetobacter baumannii CCARM 12035
[3] = system: Acinetobacter baumannii CCARM 12036
[4] = system: Acinetobacter baumannii CCARM 12037
[5] = system: Bacillus subtilis KCTC 1021
[6] = system: Bacillus subtilis KCTC 1022
[7] = system: Bacillus subtilis KCTC 3068
[8] = system: Escherichia coli CCARM 1229
[9] = system: Escherichia coli CCARM 1238
[10] = system: Escherichia coli KCTC 1682
[11] = system: Escherichia coli KCTC 2571
[12] = system: Escherichia coli KCTC 2593
[13] = system: Pseudomonas aeruginosa CCARM 2002
[14] = system: Pseudomonas aeruginosa CCARM 2003
[15] = system: Pseudomonas aeruginosa CCARM 2095
[16] = system: Pseudomonas aeruginosa CCARM 2163
[17] = system: Pseudomonas aeruginosa KCTC 1637
[18] = system: Pseudomonas aeruginosa KCTC 2004
[19] = system: Pseudomonas aeruginosa KCTC 2513
[20] = system: Salmonella typhimurium CCARM 8003
[21] = system: Salmonella typhimurium CCARM 8007
[22] = system: Salmonella typhimurium CCARM 8009
[23] = system: Salmonella typhimurium KCTC 1926
[24] = system: Staphylococcus aureus CCARM 3089
[25] = system: Staphylococcus aureus CCARM 3090
[26] = system: Staphylococcus aureus CCARM 3108
[27] = system: Staphylococcus aureus CCARM 3114
[28] = system: Staphylococcus aureus CCARM 3126
[29] = system: Staphylococcus aureus KCTC 1621
[30] = system: Staphylococcus aureus KCTC 1916
[31] = system: Staphylococcus aureus KCTC 3881
[32] = system: Staphylococcus epidermidis KCTC 1917
[33] = system: Bacillus subtilis PS832
[34] = system: Escherichia coli DL7
[35] = system: Klebsiella aerogenes ATCC 13048
[36] = system: Staphylococcus epidermidis ATCC 12228
[37] = system: Staphylococcus aureus ATCC 25023
[38] = system: Staphylococcus aureus BCRC 10780
[39] = system: Staphylococcus sp. BCRC 10451
[40] = system: Streptococcus agalactiae
[41] = system: Vibrio alginolyticus
[42] = system: Vibrio harveyi BCRC 13812
[43] = system: Bacillus subtilis DSM 347
[44] = system: Escherichia coli BL21AI
[45] = system: Escherichia coli DSM 10233
[46] = system: Micrococcus luteus ATCC 10240
[47] = system: Micrococcus luteus DSM 1790

**Q.** With `CC[C@H](C)[C@H](NC(=O)CNC(=O)[C@H](CCCN=C(N)N)NC(=O)[C@H](Cc1ccccc1)NC(=O)[C@@H](NC(=O)[C@H](Cc1cnc[nH]1)NC(=O)[C@H](Cc1cnc[nH]1)NC(=O)[C@H](Cc1ccccc1)NC(=O)[C@@H](N)Cc1ccccc1)[C@@H](C)CC)C(=O)N[C@@H](CCCCN)C(=O)N[C@@H](Cc1cnc[nH]1)C(=O)N[C@H](C(=O)NCC(=O)N[C@@H](CCCCN)C(=O)N[C@H](C(=O)N[C@H](C(=O)N[C@@H](Cc1cnc[nH]1)C(=O)N[C@@H](CCCN=C(N)N)C(=O)N[C@@H](CC(C)C)C(=O)N[C@H](C(=O)N[C@H](C(=O)NCC(=O)O)[C@@H](C)O)C(C)C)[C@@H](C)CC)[C@@H](C)O)C(C)C` [FFHHIFRGIKHVGKTIHRLVTG] as the compound, how does the MIC [1] read?
**A.** 2 µM (≈ 5.2 µg/mL)

**Q.** And the MIC [2]?
**A.** 2 µM (≈ 5.2 µg/mL)

**Q.** What about the MIC [3] of the same compound?
**A.** 2 µM (≈ 5.2 µg/mL)

**Q.** What about the MIC [4] of the same compound?
**A.** 2 µM (≈ 5.2 µg/mL)

**Q.** And the MIC [5]?
**A.** 4 µM (≈ 10.4 µg/mL)

**Q.** And the MIC [6]?
**A.** 2 µM (≈ 5.2 µg/mL)

**Q.** What about the MIC [7] of the same compound?
**A.** 1 µM (≈ 2.6 µg/mL)

**Q.** And the MIC [8]?
**A.** 4 µM (≈ 10.4 µg/mL)

**Q.** What about the MIC [9] of the same compound?
**A.** 4 µM (≈ 10.4 µg/mL)

**Q.** And the MIC [10]?
**A.** 1 µM (≈ 2.6 µg/mL)

**Q.** And the MIC [11]?
**A.** 2 µM (≈ 5.2 µg/mL)

**Q.** And the MIC [12]?
**A.** 2 µM (≈ 5.2 µg/mL)

**Q.** And the MIC [13]?
**A.** 2 µM (≈ 5.2 µg/mL)

**Q.** And the MIC [14]?
**A.** 2 µM (≈ 5.2 µg/mL)

**Q.** What about the MIC [15] of the same compound?
**A.** 2 µM (≈ 5.2 µg/mL)

**Q.** And the MIC [16]?
**A.** 2 µM (≈ 5.2 µg/mL)

**Q.** And the MIC [17]?
**A.** 1 µM (≈ 2.6 µg/mL)

**Q.** And the MIC [18]?
**A.** 2 µM (≈ 5.2 µg/mL)

**Q.** What about the MIC [19] of the same compound?
**A.** 2 µM (≈ 5.2 µg/mL)

**Q.** And the MIC [20]?
**A.** 8 µM (≈ 20.8 µg/mL)

**Q.** What about the MIC [21] of the same compound?
**A.** 4 µM (≈ 10.4 µg/mL)

**Q.** And the MIC [22]?
**A.** 4 µM (≈ 10.4 µg/mL)

**Q.** And the MIC [23]?
**A.** 1 µM (≈ 2.6 µg/mL)

**Q.** What about the MIC [24] of the same compound?
**A.** 8 µM (≈ 20.8 µg/mL)

**Q.** And the MIC [25]?
**A.** 8 µM (≈ 20.8 µg/mL)

**Q.** And the MIC [26]?
**A.** 4 µM (≈ 10.4 µg/mL)

**Q.** What about the MIC [27] of the same compound?
**A.** 4 µM (≈ 10.4 µg/mL)

**Q.** And the MIC [28]?
**A.** 4 µM (≈ 10.4 µg/mL)

**Q.** What about the MIC [29] of the same compound?
**A.** 1 µM (≈ 2.6 µg/mL)

**Q.** What about the MIC [30] of the same compound?
**A.** 2 µM (≈ 5.2 µg/mL)

**Q.** What about the MIC [31] of the same compound?
**A.** 1 µM (≈ 2.6 µg/mL)

**Q.** What about the MIC [32] of the same compound?
**A.** 1 µM (≈ 2.6 µg/mL)

**Q.** For `CC(C)C[C@H](NC(=O)CNC(=O)[C@H](C)NC(=O)[C@H](CCCN=C(N)N)NC(=O)[C@H](Cc1cnc[nH]1)NC(=O)[C@H](C)NC(=O)[C@@H](N)CC(=O)O)C(=O)N[C@@H](CCC(N)=O)C(=O)N[C@@H](Cc1ccccc1)C(=O)N1CCC[C@H]1C(=O)N[C@H](C(=O)NCC(=O)N[C@@H](CCCN=C(N)N)C(=O)N[C@H](C(=O)N[C@@H](Cc1cnc[nH]1)C(=O)N[C@@H](CCCN=C(N)N)C(=O)N[C@@H](CC(C)C)C(=O)N[C@@H](CC(C)C)C(=O)N[C@@H](CCCN=C(N)N)C(=O)N[C@@H](CCCCN)C(N)=O)C(C)C)C(C)C` [DAHRAGLQFPVGRVHRLLRK], which MIC [33] is on record?
**A.** 2 µM (≈ 4.65 µg/mL)

**Q.** What about the MIC [34] of the same compound?
**A.** 16 µM (≈ 37.2 µg/mL)

**Q.** What about the MIC [35] of the same compound?
**A.** ≥ 32 µM

**Q.** What about the MIC [36] of the same compound?
**A.** 4 µM (≈ 9.3 µg/mL)

**Q.** `CC(C)C[C@H](NC(=O)[C@H](CCCN=C(N)N)NC(=O)[C@H](CC(C)C)NC(=O)[C@H](CC(C)C)NC(=O)[C@H](CC(C)C)NC(=O)[C@H](CC(C)C)NC(=O)[C@H](CCCCN)NC(=O)[C@H](CC(C)C)NC(=O)[C@@H](N)CCCN=C(N)N)C(N)=O` [RLKLLLLRL] was tested. Which MIC [37] did it give?
**A.** 14.1 µM (≈ 16 µg/mL)

**Q.** Which MIC [38] does the source give for `CC[C@H](C)[C@H](NC(=O)[C@H](Cc1ccccc1)NC(C)=O)C(=O)N[C@@H](Cc1ccccc1)C(=O)N[C@@H](Cc1cnc[nH]1)C(=O)N[C@H](C(=O)N[C@H](C(=O)N[C@@H](CCCCN)C(=O)NCC(=O)N[C@@H](CC(C)C)C(=O)N[C@@H](Cc1ccccc1)C(=O)N[C@@H](Cc1cnc[nH]1)C(N)=O)[C@@H](C)CC)[C@@H](C)CC` [FIFHIIKGLFH] here?
**A.** 4.56 µM (≈ 6.44 µg/mL)

**Q.** What about the MIC [39] of the same compound?
**A.** ≥ 72.9 µM

**Q.** And the MIC [40]?
**A.** ≥ 72.9 µM

**Q.** And the MIC [41]?
**A.** 4.56 µM (≈ 6.44 µg/mL)

**Q.** What about the MIC [42] of the same compound?
**A.** 4.56 µM (≈ 6.44 µg/mL)

**Q.** For `CC[C@H](C)[C@H](NC(=O)[C@H](CCCN=C(N)N)NC(=O)[C@H](CCCN=C(N)N)NC(=O)[C@@H]1CCCN1C(=O)[C@@H]1CCCN1C(=O)[C@H](CCCN=C(N)N)NC(=O)[C@@H]1CCCN1C(=O)[C@H](CCCN=C(N)N)NC(=O)[C@@H]1CCCN1C(=O)[C@H](CC(C)C)NC(=O)[C@H](Cc1ccc(O)cc1)NC(=O)[C@@H]1CCCN1C(=O)[C@@H]1CCCN1C(=O)[C@H](CCCCN)NC(=O)[C@H](CC(=O)O)NC(=O)[C@@H](N)C(C)C)C(=O)N[C@@H](Cc1ccc(O)cc1)C(=O)N[C@@H](CC(N)=O)C(=O)O` [VDKPPYLPRPRPPRRIYN], which MIC [43] is on record?
**A.** ≥ 55.9 µM

**Q.** And the MIC [44]?
**A.** 28.6 µM (≈ 64 µg/mL)

**Q.** And the MIC [45]?
**A.** ≥ 55.9 µM

**Q.** What about the MIC [46] of the same compound?
**A.** ≥ 57.3 µM

**Q.** And the MIC [47]?
**A.** 6.98 µM (≈ 15.6 µg/mL)
